Reference: patent US5883074A, “Potentiators of antibacterial agents” (priority 1995, dated 1999)

Tests used:
[1] = tested on: methicillin sensitive strain Col8A; assay: Methicillin MIC in methicillin sensitive strain with potentiator, FIG. 1; assay type: cell-based, Staphylococcus aureus; details: potentiator at 0, 5, and 10 μg/ml
MRSA strain MRSA76 = assay: Methicillin potentiation (methicillin MIC reduction), FIG. 1; assay type: cell-based, Staphylococcus aureus; details: potentiator at 0, 5, and 10 μg/ml
Procedure: (§1) The methicillin MIC at 0, 5, and 10 μg/ml of the potentiating molecules is shown. The structures of the two potentiating molecules are also shown. These potentiators were identified by screening by the methods of Examples 1 and 2, and the MIC reduction evaluated by the method of Example 3.
(§2) Compounds which meet the first two criteria for follow-up are evaluated in a standard microdilution assessment of the MIC with methicillin for MRSA. (see Lorian, Antibiotics in Laboratory Medicine, 3rd ed., pp. 72-75 (1991).) In order to be carried further, the MIC of methicillin preferably is reduced in the presence of the potentiator to at most twice the MIC of a susceptible strain for methicillin. (However, that level of reduction is not essential, since in particular circumstances a potentiator which provides a lesser reduction in the MIC can be useful.) In cases where susceptibility breakpoints are not available or the organism is not resistant to the drug whose action is being potentiated, the MIC preferably must be reduced by several twofold dilutions. We describe herein two compounds identified as having methicillin potentiating activity. These two potentiators meet the first three desired pharmacologic criteria as described above: (1) Potentiation of an anti-bacterial agent, (2) Little or no inhibition of the target organisms when used alone, and (3) Ability to reduce the MIC of an antibacterial agent to less than or equal to two times the MIC of an equivalent bacterial strain susceptible to that agent.
(§3) MICs for the compounds were determined in the presence of 0, 5, and 10 μg/ml of each compound. MRSA cells were grown in the presence of 0, 5, and 10 μg/ml test compound and concentrations of methicillin obtained from serial two-fold dilutions starting at 1024 μg/ml to 0.002 μg/ml (This range can be extended or refined as appropriate.) as follows: A fresh inoculum of MRSA cells was grown at 35° C. in Mueller-Hinton Broth (MHB) overnight and then diluted 1/50 in the same medium. After regrowth at 35° C. to an OD600 of 0.2-0.4 (1-2 hrs.), the cells were diluted 1/1000 in MHB. In a microtiter plate, 50 μl of this diluted culture were combined with 50 μl MHB containing 0, 10, or 20 μg/ml test compound to give starting growth conditions of 5×10^5 cfu/ml in MHB, with 0, 5, or 10 μg/ml test compound. The plate was placed in a humidified 35° C. incubator for 24 hours, and cell growth or inhibition was read as turbidity (OD600).

MRSA strain Col [2] = assay: as above; assay type: cell-based, Staphylococcus aureus; details: potentiator at 0, 5, and 10 μg/ml
Procedure: as §1, §2, §3

MRSA [3] = assay: Specificity: intrinsic antibacterial activity without antibacterial agent; assay type: cell-based, Staphylococcus aureus; details: test compound alone, without methicillin
Procedure: In order to ascertain that the test compound is not primarily responsible for inhibition of growth, MRSA cells are grown in the presence of 5 μg/ml test compound as follows: A fresh inoculum of MRSA cells is grown at 35° C. in Mueller-Hinton Broth (MHB) overnight and then diluted 1/50 in the same medium. After regrowth at 35° C. to an OD600 of 0.2-0.4 (1-2 hrs.), the cells are diluted 1/1000 in MHB. In a microtiter plate, 50 μl of this diluted culture is combined with 50 μl MHB containing 10 μg/ml test compound to give starting growth conditions of 5×10^5 cfu/ml in MHB, with 5 μg/ml test compound. The plate is placed in a humidified 35° C. incubator for 5-24 hours, and cell growth or inhibition is read as turbidity (OD600). To be carried forward to the next step of the potentiator screening assay, the test compound should have little or no intrinsic anti-staphylococcal activity (growth should be at least 75% of the growth of the positive control without methicillin, corrected for background), or that activity should be explicable without indicating the probability of human toxicity.

MRSA Col cells = assay: Time-kill curve with methicillin; assay type: cell-based, Staphylococcus aureus
Procedure: FIG. 3a is a graph of the number of viable MRSA Col cells/ml versus growth time in hours as determined by the method of Example 4. The graph presents the time kill curve for the first potentiating compound from FIG. 1 at 10 μg/ml with methicillin at 20 μg/ml, and curves for controls (drug-free, methicillin only, and potentiator only). Viable cell counts for all controls were greater than 5×10^8 cells/ml at 24 hours, while the viable cell count for methicillin plus potentiator was approximately 5×10^3 cells/ml after 24 hours.
A standard time-kill method (see Eliopolous & Moellering, Ch. 13 in Antibiotics in Laboratory Medicine, 3rd ed., Lorian ed., at pp. 441-444) is used to characterize whether the potentiator-drug combination is bacteriostatic or bactericidal. As controls, normal growth of the pathogen (without drug or potentiator) and the effects of the drug alone and the potentiator alone are assessed using the same inoculum culture as is used in the combination time-kill test. Either bacteriostatic or bactericidal effect should be confirmed for the potentiators to progress to further testing.

MRSA [4] = assay: Potentiation screening assay: methicillin MIC reduction in MRSA; assay type: cell-based, Staphylococcus aureus; details: 0, 5, and 10 μg/ml test compound
Procedure: After regrowth at 35° C. to an OD600 of 0.2-0.4 (1-2 hrs.), the cells are diluted 1/1000 in MHB. […] The plate is placed in a humidified 35° C. incubator for 5-24 hours, and cell growth or inhibition is read as turbidity (OD600). Two positive and one negative controls for growth are cells grown MHB, cells grown in MHB plus 20 μg/ml methicillin alone (without test compound), and uninoculated MHB respectively.
Compounds which meet the first two criteria for follow-up are evaluated in a standard microdilution assessment of the MIC with methicillin for MRSA. (see Lorian, Antibiotics in Laboratory Medicine, 3rd ed., pp. 72-75 (1991).) In order to be carried further, the MIC of methicillin preferably is reduced in the presence of the potentiator to at most twice the MIC of a susceptible strain for methicillin.
as §3, with “In a microtiter plate, 50 μl of this diluted culture were combined with 50 μl MHB containing 0, 10, or 20 μg/ml test compound to give starting growth conditions of 5×10^5 cfu/ml in MHB, with 0, 5, or 10 μg/ml test compound.” left out

MRSA strain Col [5] = assay: Potentiating effect for 17 antimicrobial agents (MIC reduction), FIG. 2; assay type: cell-based, Staphylococcus aureus
Procedure: FIG. 2 is a table showing the potentiating effect of one of the potentiating molecules from FIG. 1 for 17 antimicrobial agents in MRSA strain Col. The MIC is shown at 0, 5, and 10 μg/ml of potentiator.
as §3
The procedures used in Examples 1-3 to determine potentiation activity, and MIC reduction have been carried out using larixol acetate as the test compound and various antibacterial agents in place of methicillin. […]

MRSA strain Col 2278 = assay: Imipenem potentiation (MIC reduction), FIG. 4; assay type: cell-based, Staphylococcus aureus; details: compound at 10 μg/ml
Procedure: (§4) FIG. 4 is a table showing the imipenem potentiation effect of the second compound from FIG. 1 at 10 μg/ml in 5 MRSA strains (Col, Col 2278, sa 038, Spain 356, and Spain 195).

MRSA strain Spain 195 = assay: Imipenem potentiation (MIC reduction), FIG. 4; assay type: cell-based, Staphylococcus aureus; details: compound at 10 μg/ml
Procedure: as §4

MRSA strain Col [6] = assay: Imipenem potentiation (MIC reduction), FIG. 4; assay type: cell-based, Staphylococcus aureus; details: compound at 10 μg/ml
Procedure: as §4

Enterococcus faecium = assay: Ampicillin potentiation screen; assay type: cell-based; details: highly ampicillin-resistant Enterococcus faecium, ampicillin alone
Procedure: The ampicillin potentiation screen is a high-throughput (96 well), whole cell assay in which compounds of unknown pharmacological activity are tested for their ability to induce an ampicillin-susceptible phenotype in highly ampicillin-resistant Enterococcus faecium (MIC of ampicillin>100μg/ml). These highly ampicillin-resistant bacteria are grown in the presence of ampicillin and various test compounds. The concentration of ampicillin used is well below the MIC for the resistant cells, but higher than the MIC for the isogeneic susceptible cells. Therefore, resistant cells can grow in the presence of the ampicillin without test compound, but the growth of susceptible cells is repressed. Growth is assessed after 5-24 hours by turbidity. Compounds are also tested for intrinsic antibacterial activity in the absence of ampicillin. Compounds which repress Enterococcus faecium growth when used together with ampicillin, which show no, or only a little, intrinsic antibacterial activity, are considered potentiators. […]
A fresh inoculum of E. faecium cells are grown at 35° C. in Brain-Heart Infusion Broth (BHI) overnight and then diluted 1/50 in the same medium. […] The plate is placed in a humidified 35° C. incubator for 24 hours, and cell growth or inhibition is read as turbidity (OD600). […]

| SMILES | reduction of methicillin MIC [1] | reduction of methicillin MIC (MRSA strain MRSA76) | reduction of methicillin MIC (MRSA strain Col [2]) | intrinsic antimicrobial activity (MRSA [3]) | viable cell count, methicillin plus potentiator (MRSA Col cells; potentiator 10 μg/ml with methicillin 20 μg/ml, after 24 hours) | viable cell count, potentiator only (control) (MRSA Col cells; potentiator only, at 24 hours) | effect on the MIC for methicillin (MRSA [4]) | MIC reduction of antimicrobial agents (MRSA strain Col [5]; potentiator at 0, 5, and 10 μg/ml, range of β-lactams, including methicillin, cefazolin, and imipenem) | MIC with potentiator relative to MIC of the antibacterial agent in the absence of the potentiator (MRSA strain Col [5]; some β-lactams, larixol acetate as potentiator) | imipenem MIC reduction (MRSA strain Col 2278) | imipenem MIC reduction (MRSA strain Spain 195) | imipenem MIC reduction (MRSA strain Col [6]) | MIC (Enterococcus faecium) [µg/mL] |
| --- | --- | --- | --- | --- | --- | --- | --- | --- | --- | --- | --- | --- | --- |
| COc1ccc2c(c1)CCC1C2CCC2CC(O)CCC21C (stereo not drawn) [HMM-dodecahydrochrysene, 2-hydroxy-8-methoxy-4a-methyl-1,2,3,4,4a,4b,5,6,10b,11,12,12a-dodecahydrochrysene] | absence of a reduction in the MIC | reducing the methicillin MIC | reducing the methicillin MIC | not exhibiting intrinsic antimicrobial activity | approximately 5×10^3 cells/ml | greater than 5×10^8 cells/ml | reduce the MIC for methicillin | – | – | – | – | – | – |
| C=CC(C)(O)CCC1C(=C)CC(OC(C)=O)C2C(C)(C)CCCC12C (stereo not drawn) [larixol acetate] | absence of a reduction in the MIC | reducing the methicillin MIC | reducing the methicillin MIC | not exhibiting intrinsic antimicrobial activity | – | – | reduce the MIC for methicillin | Significant MIC reduction | less than 10^-3 | three orders of magnitude | three orders of magnitude | three orders of magnitude | – |
| CC1(C)S[C@@H]2[C@H](NC(=O)[C@H](N)c3ccccc3)C(=O)N2[C@H]1C(=O)O [ampicillin] | – | – | – | – | – | – | – | – | – | – | – | – | > 100 |
